The values that follow come from US20240109937A1, “BINDING PEPTIDES AND USES THEREOF” (The Johns Hopkins University, priority 2021, published 2024).

Like-named read-outs stand apart in the source and are kept apart here. Bridge positions count the residues as written; N and C are the ends. Square brackets hold non-standard residues; d marks the D form. Peptide text beside a SMILES is read from it. hArg = N=C(N)NCCCC[C@H](N)C(=O)O

Assay [1] relates to HL-1 cells. Briefly: Cell viability assay (LDH release) in HL-1 cells under Ca2+ overload. The class given is cell-based, mouse. How it is done: Calcium (Ca^2+) Overload Protocol: Rapid and sustained intracellular Ca^2+ overload was obtained by adding the Ca^2+-ionophore, calcimycin (1 μM), to HL-1 cells incubated for 10 min in HBS KV medium (1.26 mM CaCl2, 0.81 mM MgSO4, 0.44 mM KH2PO4, 142 mM KCl, 0.27 mM K2HPO4, 5.55 mM D-glucose, 1 mM Na3VO4, 20 mM Hepes pH 7.4). To monitor intracellular Ca^2+ variations, HL-1 cells were loaded with 5 μM Fluo-4 FF AM (Molecular Probes) in HBS Na (Sigma) for 30 min before the media was replaced with HBS KV. […] Cell Viability Assay: HL-1 plasma membrane integrity was assessed by measuring lactate dehydrogenase (LDH) release in the culture supernatant. An enzymatic assay evaluated LDH activity. Samples of the cell-free culture supernatant were collected at indicated times in Figures/Figure Legends, while cells were lysed in 1% (w/v) Triton X-100 at the end of each experiment to estimate the remaining cellular content of LDH. The LDH activity at each time point was expressed as a percentage of total LDH activity.

In assay [2] the target is T1, CAPN1 (Mus musculus, UniProt O35350).
T1 construct: endogenous in cells; host or cells: HL-1 cardiomyocytes
T1 sequence (O35350 1-713): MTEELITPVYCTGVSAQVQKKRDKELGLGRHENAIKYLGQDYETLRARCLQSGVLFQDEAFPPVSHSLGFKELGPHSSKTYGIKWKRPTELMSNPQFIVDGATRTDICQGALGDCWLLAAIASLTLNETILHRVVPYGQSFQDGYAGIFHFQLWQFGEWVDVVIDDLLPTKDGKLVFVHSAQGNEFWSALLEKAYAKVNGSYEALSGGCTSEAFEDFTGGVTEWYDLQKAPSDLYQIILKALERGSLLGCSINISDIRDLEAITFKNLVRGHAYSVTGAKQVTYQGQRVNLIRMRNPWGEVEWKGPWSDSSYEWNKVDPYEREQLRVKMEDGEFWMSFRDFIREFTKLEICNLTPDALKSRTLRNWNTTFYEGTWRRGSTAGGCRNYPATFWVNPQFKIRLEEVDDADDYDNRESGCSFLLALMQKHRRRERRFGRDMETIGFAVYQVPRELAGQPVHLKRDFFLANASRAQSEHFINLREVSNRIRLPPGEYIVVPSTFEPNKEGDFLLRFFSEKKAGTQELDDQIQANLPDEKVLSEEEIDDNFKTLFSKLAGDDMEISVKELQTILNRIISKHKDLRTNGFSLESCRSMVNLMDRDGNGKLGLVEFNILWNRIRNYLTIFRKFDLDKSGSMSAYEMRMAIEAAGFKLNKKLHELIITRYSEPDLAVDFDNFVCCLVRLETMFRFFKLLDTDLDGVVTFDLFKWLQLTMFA
T1 sequence (O88456 1-268 partner): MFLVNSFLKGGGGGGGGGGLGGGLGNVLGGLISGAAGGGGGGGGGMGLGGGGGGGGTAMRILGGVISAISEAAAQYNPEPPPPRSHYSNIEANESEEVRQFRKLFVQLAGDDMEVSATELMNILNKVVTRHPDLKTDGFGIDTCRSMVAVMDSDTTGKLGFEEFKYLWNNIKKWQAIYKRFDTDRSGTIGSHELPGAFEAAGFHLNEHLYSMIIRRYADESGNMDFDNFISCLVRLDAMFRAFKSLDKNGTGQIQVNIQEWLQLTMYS
Description: Calpain activity assay (Suc-LLVY-AMC cleavage) in HL-1 cells under Ca2+ overload. The class given is cell-based. Here is the method:
Calcium (Ca^2+) Overload Protocol: Rapid and sustained intracellular Ca^2+ overload was obtained by adding the Ca^2+-ionophore, calcimycin (1 μM), to HL-1 cells incubated for 10 min in HBS KV medium (1.26 mM CaCl2, 0.81 mM MgSO4, 0.44 mM KH2PO4, 142 mM KCl, 0.27 mM K2HPO4, 5.55 mM D-glucose, 1 mM Na3VO4, 20 mM Hepes pH 7.4). To monitor intracellular Ca^2+ variations, HL-1 cells were loaded with 5 μM Fluo-4 FF AM (Molecular Probes) in HBS Na (Sigma) for 30 min before the media was replaced with HBS KV. […] Calpain (CAPN) Activity Assay: […] HL-1 cells were grown in 24-well plates and incubated for 30 min in HBS Na (Sigma) with 25 μM Suc-LLVY-AMC (SEQ ID NO: 81) and 0.01% pluronic F127 (Molecular Probes) before treatment protocols. […] CAPN activity was inhibited via the addition of either calpeptin (Tocris) or PD150606 (Calbiochem) in the incubation medium.

Assay [3] has as its target T2, PPIA (Homo sapiens, UniProt P62937). Briefly: KD determination of cyclic peptides derived from Formula (I). Format: binding.
For assay [4], the system named is HL-1 cells. Description: Intracellular Ca2+ (Fluo4 FF fluorescence) in HL-1 cells. Format: cell-based, mouse. The note with it: Calcimycin 1 μM in HBS KV medium. Here is the method:
(§1) Calcium (Ca^2+) Overload Protocol: Rapid and sustained intracellular Ca^2+ overload was obtained by adding the Ca^2+-ionophore, calcimycin (1 μM), to HL-1 cells incubated for 10 min in HBS KV medium (1.26 mM CaCl2, 0.81 mM MgSO4, 0.44 mM KH2PO4, 142 mM KCl, 0.27 mM K2HPO4, 5.55 mM D-glucose, 1 mM Na3VO4, 20 mM Hepes pH 7.4). To monitor intracellular Ca^2+ variations, HL-1 cells were loaded with 5 μM Fluo-4 FF AM (Molecular Probes) in HBS Na (Sigma) for 30 min before the media was replaced with HBS KV.

The target in assay [5] is T1, CAPN1. Briefly: Western blot of CAPN1 in purified mitochondria from HL-1 cells under Ca2+ overload. Format: cell-based. The following applies: Ca2+ overload (HBS KVC), calpeptin 50 μM, PD150606 10 μM. How it is done:
as §1, with “KV. The fluorescence was recorded using a fluorimeter plate reader (Fluoroskan Ascent Labsystem) at wavelength settings of 485/530 nm for excitation/emission, respectively.” for “KV.”
Mitochondria Isolation Protocol: Mitochondria were isolated from HL-1 cells in percoll density gradient. Briefly, 30×10^6 adherent cells were harvested with Trypsin/EDTA, centrifuged at 500×g for 10 min, washed in buffer A (100 mM sucrose, 1 mM EGTA, 20 mM MOPS, pH 7.4, and 1 mg/mL BSA) before cell disruption with a Dounce homogenizer. The suspension was centrifuged twice at 500× g for 5 min and the resulting supernatant at 10,000×g for 10 min at 4° C. The pellet was re-suspended in buffer B (300 mM sucrose, 1 mM EGTA, 20 mM MOPS pH 7.4, 1 mg/mL BSA), and the homogenate was layered on a two-phase (25% and 40%) percoll density gradient. […]
For orientation: Immunoblotting shows a protein as a band on a membrane.

Assay [6] has as its system HL-1 cells. Description: Mitochondrial membrane potential (JC-1) assay in HL-1 cells. Format: cell-based, mouse. The note with it: Calcimycin 1 μM in HBS KV medium. Here is the method: Calcium (Ca^2+) Overload Protocol: Rapid and sustained intracellular Ca^2+ overload was obtained by adding the Ca^2+-ionophore, calcimycin (1 μM), to HL-1 cells incubated for 10 min in HBS KV medium (1.26 mM CaCl2, 0.81 mM MgSO4, 0.44 mM KH2PO4, 142 mM KCl, 0.27 mM K2HPO4, 5.55 mM D-glucose, 1 mM Na3VO4, 20 mM Hepes pH 7.4). To monitor intracellular Ca^2+ variations, HL-1 cells were loaded with 5 μM Fluo-4 FF AM (Molecular Probes) in HBS Na (Sigma) for 30 min before the media was replaced with HBS KV. […] Mitochondrial Membrane Potential (MMP) Assay: MMP was determined using the potentiometric probe, JC-1. JC-1 (Molecular Probes) is a cationic carbocyanine dye that selectively accumulates in polarized mitochondria, where it forms red fluorescent aggregates (excitation 485/emission 590 nm). Upon mitochondrial depolarization, JC-1 is released into the cytosol, whereas a monomer emits green fluorescence (excitation 485 nm/emission 520 nm). Therefore, MMP variations were monitored as the ratio of fluorescent emissions at 590/520 nm using a fluorimeter plate reader (Fluoroskan Ascent Labsystem). HL-1 cells were incubated with JC-1 (1.5 μM) for 30 min at 37° C. in HBS Na before treatment protocols.

The target in assay [7] is T2, PPIA. The following applies: read-out: KD, binds and sequesters cytosolic PPIA; cited from earlier work.
[8] abbreviates: Ca2+ overload in HBS KV medium, 5 mM EGTA in incubation media.
Where [9] appears, read: Calcimycin 1 μM in HBS KV medium, dose-dependent response.

T2 sequence (P62937 whole entry, species assumed): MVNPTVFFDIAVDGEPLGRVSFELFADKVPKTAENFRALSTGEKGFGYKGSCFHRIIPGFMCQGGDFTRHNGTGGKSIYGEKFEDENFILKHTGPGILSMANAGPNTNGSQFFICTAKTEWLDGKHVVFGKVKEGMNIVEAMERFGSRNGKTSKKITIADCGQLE

`O=C(O)CN(CCOCCOCCN(CC(=O)O)CC(=O)O)CC(=O)O` [EGTA]: the “cell death (LDH release)” value with HL-1 cells [1] (setting [8]) is “attenuated”. At CAPN1 [2] (setting [8]), the CAPN1 activation entry is given as “attenuated”.

`CC[C@H](C)[C@@H]1NC(=O)[C@@H](N)CSSC[C@@H](C(N)=O)NC(=O)[C@H](C(C)C)NC(=O)[C@H](CCCCNC(=N)N)NC(=O)[C@H](CCCNC(=N)N)NC(=O)CNC(=O)[C@H](CC(=O)O)NC(=O)[C@H](CCCCN)NC(=O)[C@H](CC(C)C)NC(=O)[C@H](CCCCN)NC1=O` [X8: hR] (H-CIKLKDGR[hArg]VC-NH2; disulfide 1-11): the Kd (usually a measure of binding affinity in units of concentration) at PPIA [3] is over 1000 µM.

Regarding `O=C(O)/C(S)=C/c1ccc(I)cc1` [PD150606], the “kinetics of cytosolic Ca2+ accumulation” value with HL-1 cells [4] is “neither of them had an impact”. For the same compound, in the assay with HL-1 cells [1] (setting [9]), the “reduction in cell death (LDH release)” value is about 15%. Besides, on CAPN1 [5], the “mitochondrial CAPN1 translocation” value is given as “failed to prevent”. Moreover, in the assay on HL-1 cells [6], the “Ca2+ overload-induced decrease in mitochondrial membrane potential (MMP)” value is on record as “reduced ability to restore MMP”. On CAPN1 [2] (setting [9]), the “reduction in Ca2+ overload-induced CAPN1 substrate hydrolysis” value is on record as about 60%.

“QSVGVSSGKLLIKLKDGRKVETDHI [AIF (370-394), Linear peptide, 25 amino acids long]”: the dissociation constant (Kd) at PPIA [7] was 12 µM.

For `CC[C@H](C)[C@@H]1NC(=O)[C@@H](N)CSSC[C@@H](C(N)=O)NC(=O)[C@H](C(C)C)NC(=O)[C@H](CCCCN)NC(=O)[C@H](CCCNC(=N)N)NC(=O)CNC(=O)[C@H](CC(=O)O)NC(=O)[C@H](CCCCNC(=N)N)NC(=O)[C@H](CC(C)C)NC(=O)[C@H](CCCCN)NC1=O` [X4: hR] (H-CIKL[hArg]DGRKVC-NH2; disulfide 1-11), the Kd at PPIA [3] is over 1000 µM.
